Test results published in patent US20060111335A1, “Photoactivated anti-viral and anti-cancer agent” (priority 2002, published 2006).

Experiments:
φX-174 plasmid DNA = assay: Photonicking of φX-174 plasmid DNA, gel electrophoresis; assay type: biochemical; conditions: for photonicking of φX-174 plasmid DNA: Example IX, dark and upon exposure to light
Experimental: Photolysis with φX-174 Plasmid DNA. Metal complex solutions (with or without quenchers) were saturated with oxygen or argon prior to irradiation. The solutions were further degassed after being mixed with the plasmid. The final solution concentrations were: DPPZPHEN ([…]), φX-174 plasmid DNA (205 μM in base pairs), superoxide dismutase (25 μg/mL), 2-propanol (0.5 M), mannitol (6.25 mM), histidine (8 mM).
Experiments were conducted as described in Example X to evaluate the amount photonicking that occurred in the dark and upon exposure to light for 37TMBP, 56TMBP, OCTBP, BISNMe2, TMOBP, TIOBP, TPBP, BISTAP and BISDPPZ.

[1] = Reversed phase HPLC elution on C8 column as measure of hydrophobicity; assay type: physicochemical
Experimental: Reversed phase high performance liquid chromatography (RP-HPLC) was carried out on C8 columns. Compounds were tested using 20%, 30% and 45% acetonitrile in 100 mM ammonium acetate at pH 5.4 for elution on a C8 column, with the intention of achieving an elution time of about 15 minutes. It was expected that the more hydrophobic a compound, the higher the acetonitrile content one would need for the eluent.

cell membrane = assay: Cell uptake / passage through the cell membrane
Experimental: OCTBP uptake by KB cells. 11 mg of OCTBP was dissolved in 40 mL of PBS buffer. The solution was vortex stirred for 5 minutes to completely dissolve the solid. The solution was sterile filtered through a 0.2μ nylon syringe filter. The concentration of the solution was determined by measuring the UV absorption at 353 nm (ε353nm=1565 M^−1cm^−1).
Once the cells were 75% confluent media was decanted from the flasks and 8 mL of drug solutions were added to three flasks and 8 mL of PBS buffer solution was added to the control flask. The flasks were incubated at 37° C. for 15, 30 and 45 minutes. Control flask was incubated for 45 minutes. When the flasks were removed, they were washed with 6×10 mL of PBS buffer solution. All the liquid was carefully decanted from the flasks. 1 mL of lysing buffer (1% triton X-100) was added to each of the four flasks. The walls of the flasks were rinsed using disposable pipettes. Once all the contents of the flasks were placed into a 1.5 mL disposable centrifuge tubes (each flask yielded ˜1.2 mL), the tubes were centrifuged at 6000 rpm and at 4° C. for 30 minutes on the Fisher Model 59V high-speed centrifuge. BCA Assay was done to establish the amount of cells in each flask.
Rh content of each flask was determined using an inductively coupled plasma (ICP) instrument (AtomScan16, Thermo Elemental, Franklin, Mass.). From each centrifuge tube 1 mL was pipetted and 370 μL of concentrated HCl was added to form a 10% solution. The samples were heated in a hot water bath at 70° C. for 30 minutes. The samples were centrifuged again and the supernatant liquid was diluted to 8 mL by adding nano-pure water. The samples were analyzed for Rh content by ICP.

cells = assay: Phototoxicity, summary statement of Example XII; assay type: cell-based
Calf thymus DNA = assay: Dark association with DNA, UV-Visible titration (Example XI); assay type: binding; conditions: 50 mM pH 7 I=0.15 sodium phosphate buffer (physiological condition)
Experimental: Preparation of DNA solution. Calf thymus DNA (Sigma) was dissolved in 50 mM, pH 7, I=0.15 sodium phosphate buffer (Physiological condition) and sonicated. The purity of the DNA was checked by monitoring the absorption spectrum and the ratio of the absorbance at 260 to 280 nm. The ratio were within the acceptable purity margin (1.8±0.1). The concentration of the Calf thymus DNA per phosphate was determined spectrophotometrically: ε253=6600 for calf thymus DNA^1. The concentration was 2.13 E-3 M.
The resulting solution was diluted 4 times with phosphate buffer. […] 0, 50 μL, 150 μL, 200 μL, 300 μL, 350 μL and 500 μL of DNA solutions were added, mixed well with a small disposable needle, and spectra were recorded again. The concentration of the species, the apparent absorbance at 337 nm, and the apparent extinction coefficients at 337 nm were determined from the absorptions spectra and tabulated in Table 1.
The apparent binding constant, Kapp was determined from the plot of [DNA]/Δεapp versus [DNA], where Δεapp=εf−εapp and Δε=εf−εb^2, where εb and εf correspond to the extinction coefficient of the DNA-bound form of the OCTBP derivatives and the extinction coefficient of the DNA-unbound OCTBP derivatives, respectively. […] Cb=(εfCtotal−Aobserved)/Δε The concentration of the DNA-unbound OCTBP derivatives (Cf) can be determined by Cf=Ctotal−Cb […]

[2] = Photodestruction (photoaquation) with visible light >500 nm, HPLC analysis; assay type: physicochemical; conditions: 0.1 mM aqueous, 8 hours under argon
Experimental: Aqueous solutions (3 mL, 0.1 mM) of the Rh complexes were irradiated for 8 hours under argon using a 450 W Hanovia medium pressure mercury lamp filtered through a uranium yellow glass (cut-off<330 nm) and a 1.5 cm 0.5% (w/v) aqueous solution of K2Cr2O7 (0% transmittance≦500 nm). Photodestruction of the metal complexes was followed by HPLC analysis.

[3] = Dark thermal aquation and thermal base hydrolysis; assay type: physicochemical; conditions: 80° C. with 10% NaOH
Source text: A dissociation/addition mechanism is generally accepted as responsible for the substitution chemistry associated with a hexacoordinated Rh(III) ligand field triplet (Weiland et al., Inorg. Chem., 25:4893 (1986)). The dissociation step is due to the promotion of an electron from the t2g orbital to the eg orbital, which leads to significant weakening of the metal ligand bonds. (Hipps et al., Inorg. Chem., 13:1544 (1974)).

bacteriophage φ6 = conditions: cited from earlier work
KB cells = conditions: delivered to cells by liposome; cited from earlier work
[4] = tested on: HeLa (human cervical carcinoma) cells; conditions: cited from earlier work
nucleic acid = conditions: irradiated with light; cited from earlier work
[5] = tested on: naked infectious DNA from phages S13 and G4; conditions: cited from earlier work
DNA = tested on: DNA; parameters: association with DNA in the dark: dose or concentration left out as unconfirmed; conditions: cited from earlier work
CT DNA = assay: Dark interaction of DPPZPHEN with CT DNA, UV-Vis absorption titration at 380 nm; assay type: binding, calf
Experimental: General. The quantity of DNA was determined by the Burton assay (Burton, Biochem. J., 62:315-322 (1956)), and its rhodium content was quantitated using flame atomic absorption spectroscopy (AA). The equilibrium constant for interaction between DPPZPHEN and CT-DNA in the dark was calculated from UV-Vis absorption titration measurements at 380 nm (Wolfe et al., Biochem., 26:6392-6396 (1987); Schemel et al., Biopolymers, 10:465-480 (1971)). Cell viability was determined using the MTT assay (Denizot et al., J. Immunol. Methods, 89:271-277 (1986)). SINV was purified on sucrose gradients as previously described (Owen et al., J. Virol., 70:2757-2763 (1996)). The titer was generally 7-8 log10 pfu/mL at the beginning of each experiment.
Interaction of DPPZPHEN with DNA. […] An intrinsic binding constant of […] 3.4×10^5 M^−1 was calculated using the molar extinction coefficient at the λmax (380 nm) at each titration point.

Sindbis virus = conditions: cited from earlier work
[6] = tested on: KB (human nasopharingeal carcinoma) cells; conditions: cited from earlier work
[7] = 45% acetonitrile in 100 mM ammonium acetate pH 5.4

Cc1c(C)c2c3c4c1=CC=C[N]4[Rh+]1([Cl])([Cl])([N]3C=CC=2)[N]2C=CC=c3c(C)c(C)c4c(c32)[N]1C=CC=4.[Cl-] [56TMBP, cis-dichlorobis(5,6-dimethyl-1,10-phenanthroline) rhodium(III) chloride]
photonicking of φX-174 plasmid DNA (φX-174 plasmid DNA): Only TPBP, BISTAP, BISDPPZ and BISDPPHEN complexes were found to photonick

[Cl-].[Cl][Rh+]12([Cl])([N]3C=CC=c4c3c3c(c5nc6ccccc6nc45)=CC=C[N]31)[N]1C=CC=c3c1c1c(c4nc5ccccc5nc34)=CC=C[N]12 [BISDPPZ, cis-dichlorobis{dipyrido(3,2-a: 2′,3′-c)phenazine)rhodium (III) chloride]
elution time [1, 7]: around 30 minutes
photonicking of φX-174 plasmid DNA (φX-174 plasmid DNA): found to photonick

[Cl-].[Cl][Rh+]12([Cl])([N]3C=CC=c4c3c3c(c5nccnc45)=CC=C[N]31)[N]1C=CC=c3c1c1c(c4nccnc34)=CC=C[N]12
elution time [1, 7]: 8 to 10 min

CN(C)C1=c2ccc3c4c2[N](C=C1)[Rh+]1([Cl])([Cl])([N]4C=CC=3N(C)C)[N]2C=CC(N(C)C)=c3ccc4c(c32)[N]1C=CC=4N(C)C.[Cl-] [BISNMe2, cis-dichlorobis(N,N-dimethylamino)-1,10-phenanthroline} rhodium(III) chloride]
ability to pass through the cell membrane (cell membrane): able to pass through the cell membrane
elution time [1, 7]: about 15 minutes
phototoxicity (cells): are phototoxic
apparent (intrinsic) binding constant Kapp (Calf thymus DNA): 2.0 E4 M
photonicking of φX-174 plasmid DNA (φX-174 plasmid DNA): Only TPBP, BISTAP, BISDPPZ and BISDPPHEN complexes were found to photonick

CC1=c2ccc3c4c2[N](C=C1)[Rh+]1([Cl])([Cl])([N]4C=CC=3C)[N]2C=CC(C)=c3ccc4c(c32)[N]1C=CC=4C.[Cl-] [37TMBP]
photonicking of φX-174 plasmid DNA (φX-174 plasmid DNA): Only TPBP, BISTAP, BISDPPZ and BISDPPHEN complexes were found to photonick
photodestruction [2]: 6.1 % loss
thermal hydrolysis, rank order [3]: OCTBP≅37TMBP>BISPHEN

COC1=c2ccc3c4c2[N](C=C1)[Rh+]1([Cl])([Cl])([N]4C=CC=3OC)[N]2C=CC(OC)=c3ccc4c(c32)[N]1C=CC=4OC.[Cl-] [TMOBP, cis-dichlorobis(4,7-dimethoxy-1,10-phenanthroline) rhodium(III) chloride]
elution time [1, 7]: about 15 minutes
photonicking of φX-174 plasmid DNA (φX-174 plasmid DNA): Only TPBP, BISTAP, BISDPPZ and BISDPPHEN complexes were found to photonick

[Cl-].[Cl][Rh+]12([Cl])([N]3C=CC(c4ccccc4)=c4ccc5c(c43)[N]1C=CC=5c1ccccc1)[N]1C=CC(c3ccccc3)=c3ccc4c(c31)[N]2C=CC=4c1ccccc1 [TPBP, cis-dichlorobis(4,7-diphenyl-1,10-phenanthroline) rhodium(III) chloride]
elution time [1, 7]: around 30 minutes
photonicking of φX-174 plasmid DNA (φX-174 plasmid DNA): found to photonick

CC(C)OC1=c2ccc3c4c2[N](C=C1)[Rh+]1([Cl])([Cl])([N]4C=CC=3OC(C)C)[N]2C=CC(OC(C)C)=c3ccc4c(c32)[N]1C=CC=4OC(C)C.[Cl-] [TIOBP, cis-dichlorobis(3,7-diisopropoxy-1,10 phenanthroline) rhodium(III) chloride]
elution time [1, 7]: about 15 minutes
photonicking of φX-174 plasmid DNA (φX-174 plasmid DNA): Only TPBP, BISTAP, BISDPPZ and BISDPPHEN complexes were found to photonick

[Cl-].[Cl-].[Cl-].[Rh+3].c1cnc2c(c1)ccc1cccnc12.c1cnc2c(c1)ccc1cccnc12 [BISPHEN, cis-dichlorobis(1,10-phenanathroline) rhodium(III) chloride]
activity against bacteriophage φ6 (bacteriophage φ6): did not exhibit any activity
phototoxicity against KB cells (KB cells): marginal levels of phototoxicity
ability to pass through the cell membrane (cell membrane): Neither of these compounds is able to pass through a cell membrane
elution time ([1]; 20% acetonitrile in 100 mM ammonium acetate pH 5.4): about 15 minutes
uptake by cells [4]: not taken up
covalent binding to nucleic acid upon irradiation (nucleic acid): covalently binds to nucleic acid
phototoxicity to single stranded and double stranded naked infectious DNA [5]: phototoxic
dark association with DNA (DNA; dark): minimal dark association
association with DNA in the dark (DNA; very low ionic strength): only a minimal association
interaction with CT DNA in the dark (CT DNA): negligible interaction
phototoxicity / virucidal activity against Sindbis virus (Sindbis virus): minimal phototoxicity
frank nicks / nicking of φX-174 supercoiled plasmid DNA upon irradiation (φX-174 plasmid DNA; 311 nm irradiation, Example VIII): does not generate such frank nicks
uptake by cells [6]: not taken up
photodestruction [2]: virtually unaffected
thermal hydrolysis, rank order [3]: OCTBP≅37TMBP>BISPHEN
